Measurements: ChEMBL document CHEMBL1201862, “PubChem BioAssay data set” (2004)
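Each compound was tested at five concentrations against cells in 96-well plates for 48 hours. At the GI50, growth is halved.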 Active and inactive are the calls of the source. Cut-off read from the data, not from the text of the source: active = GI50 up to about 1.1 µM and inactive = higher.

Key:
Experiment in all cases: growth of human tumour cells (NCI), 48 h
[1] = test system: A549
[2] = test system: DMS-273
[3] = test system: IGROV-1
[4] = test system: CCRF-CEM
[5] = test system: SF-268
[6] = test system: TK-10
[7] = test system: U-251
[8] = test system: K562
[9] = test system: NCI-H460
[10] = test system: OVCAR-3
[11] = test system: OVCAR-5
[12] = test system: 786-0
[13] = test system: NCI-H226
[14] = test system: CAKI-1
[15] = test system: SN12C
[16] = test system: BT-549
[17] = test system: RXF 393
[18] = test system: T47D
[19] = test system: Hs-578T
[20] = test system: DU-145

Row | Structure (SMILES) | GI50 [1] | GI50 [2] | GI50 [3] | GI50 [4] | GI50 [5] | GI50 [6] | GI50 [7] | GI50 [8] | GI50 [9] | GI50 [10] | GI50 [11] | GI50 [12] | GI50 [13] | GI50 [14] | GI50 [15] | GI50 [16] | GI50 [17] | GI50 [18] | GI50 [19] | GI50 [20]
1 | CC(C)(C)c1cc(C(P(=O)(O)O)P(=O)(O)O)cc(C(C)(C)C)c1O | > 100 µM (inactive) | > 100 µM (inactive) | > 100 µM (inactive) | > 100 µM (inactive) | > 100 µM (inactive) | > 100 µM (inactive) | > 100 µM (inactive) | > 100 µM (inactive) | > 100 µM (inactive) | > 100 µM (inactive) | > 100 µM (inactive) | > 100 µM (inactive) | > 100 µM (inactive) | > 100 µM (inactive) |  |  |  |  |  | 
2 | COC1(OC)C(N(C)C)=C(Cl)C(=O)/C1=C/C=O | > 100 µM (inactive) | > 100 µM (inactive) | > 100 µM (inactive) | 20.9 µM (inactive) | > 100 µM (inactive) | > 100 µM (inactive) | > 100 µM (inactive) | 33.1 µM (inactive) | > 100 µM (inactive) | 60.1 µM (inactive) | > 100 µM (inactive) | > 100 µM (inactive) | > 100 µM (inactive) | > 100 µM (inactive) | > 100 µM (inactive) |  |  |  |  | 
3 | Cc1cccc(C(=O)O)c1CC1NCCC2c3ccccc3NC12 (centres undefined) | > 100 µM (inactive) |  | > 100 µM (inactive) | > 100 µM (inactive) | > 100 µM (inactive) | > 100 µM (inactive) | > 100 µM (inactive) | > 100 µM (inactive) | > 100 µM (inactive) | 20.7 µM (inactive) | > 100 µM (inactive) | > 100 µM (inactive) | > 100 µM (inactive) | > 100 µM (inactive) | > 100 µM (inactive) | > 100 µM (inactive) | > 100 µM (inactive) | > 100 µM (inactive) | > 100 µM (inactive) | > 100 µM (inactive)
4 | CN=C(n1ccnc1)n1ccnc1 | > 100 µM (inactive) |  | > 100 µM (inactive) | > 100 µM (inactive) | > 100 µM (inactive) | > 100 µM (inactive) | > 100 µM (inactive) | > 100 µM (inactive) | > 100 µM (inactive) | > 100 µM (inactive) | > 100 µM (inactive) | > 100 µM (inactive) | > 100 µM (inactive) | > 100 µM (inactive) | > 100 µM (inactive) | > 100 µM (inactive) | > 100 µM (inactive) | > 100 µM (inactive) | > 100 µM (inactive) | > 100 µM (inactive)
5 | O=c1[nH]nc2ccccc2c1Cc1ccccc1 | > 100 µM (inactive) | > 100 µM (inactive) | > 100 µM (inactive) | > 100 µM (inactive) | > 100 µM (inactive) | > 100 µM (inactive) | > 100 µM (inactive) | > 100 µM (inactive) | > 100 µM (inactive) | > 100 µM (inactive) | > 100 µM (inactive) | > 100 µM (inactive) | > 100 µM (inactive) | > 100 µM (inactive) | > 100 µM (inactive) |  |  |  |  | 
6 | Cn1nc(-c2ccccc2)nc1[N+](=O)[O-] | > 10 µM (inactive) |  | > 10 µM (inactive) | > 10 µM (inactive) | > 10 µM (inactive) | > 10 µM (inactive) | > 10 µM (inactive) | > 10 µM (inactive) | > 10 µM (inactive) | > 10 µM (inactive) | > 10 µM (inactive) | > 10 µM (inactive) | > 10 µM (inactive) | > 10 µM (inactive) | > 10 µM (inactive) | > 10 µM (inactive) | > 10 µM (inactive) | > 10 µM (inactive) | > 10 µM (inactive) | > 10 µM (inactive)
7 | C[C@]12CC[C@H](O)C[C@H]1CC[C@@H]1[C@@H]2CC[C@]2(C)[C@@H](C3=CC(=O)OC3)CC[C@]12O [DIGITOXIGENIN] | 0.0183 µM (active) |  | 0.0668 µM (active) | 0.0297 µM (active) | 0.0367 µM (active) | 0.0944 µM (active) | 0.199 µM (active) | 0.0536 µM (active) | 0.0168 µM (active) | 0.0367 µM (active) | 0.59 µM (active) | 0.0447 µM (active) | 1.27 µM (inactive) | 0.0357 µM (active) | 0.0349 µM (active) | 0.0372 µM (active) | 0.0144 µM (active) | 0.292 µM (active) | 0.0673 µM (active) | 0.04 µM (active)
8 | COc1nc(N=P(c2ccccc2)(c2ccccc2)c2ccccc2)cc(=O)[nH]1 | > 100 µM (inactive) |  | > 100 µM (inactive) | > 100 µM (inactive) | > 100 µM (inactive) | > 100 µM (inactive) | > 100 µM (inactive) | > 100 µM (inactive) | > 100 µM (inactive) | > 100 µM (inactive) | > 100 µM (inactive) | > 100 µM (inactive) | > 100 µM (inactive) | > 100 µM (inactive) | > 100 µM (inactive) | > 100 µM (inactive) | > 100 µM (inactive) | > 100 µM (inactive) | > 100 µM (inactive) | > 100 µM (inactive)
